Data as given in patent publication US5866576A, “Epoxide-containing compounds” (Cell Therapeutics, Inc., priority 1997, dated 1999).
“Also recorded” adds a separate entry of the source.

How the values were obtained:
thymocytes [1] = assay: IL-2 (ConA co-stimulated) induced proliferation of thymocytes; format: cell-based, mice; conditions: Mus musculus, Thymocyte, 96 h; Table II; ConA 0.25 ug/ml / IL2 20 ng/ml, 4 days
Protocol: This example illustrates the effects of inventive compounds nos. 1105, 1114, 1413, 1439, 1594, 2518, 2548R, 2548S, 2562 and 3503 as effective inhibitors of IL-2 induced proliferation of thymocytes. Single cell suspensions of thymus gland cells obtained from 4-6 week old mice were prepared. Two-hundred thousand cells were plated into individual wells of flat-bottom 96-well plates in RPMI-1640-10% FCS medium. The invention compounds were then added to the wells at varying concentrations and the cells incubated for 1-2 hours at 37° C.
Following this pre-incubation a mixture of Concanavalin A (ConA) and Interleukin-2 (IL2) was added to the experimental wells at a final concentration of (0.25 ug/ml ConA)/(20 ng/ml IL2). Appropriate positive and negative controls were set up on each plate. Each variable was set up in quadruplicate.
The plates were incubated for 4 days at 37° C. in a humidified CO2 incubator. On day 4 the wells were pulsed with 1 μCi of tritiated thymidine(3H-TdR) and the plates incubated for an additional 4 hours. The plates were then harvested and the incorporation of 3H-TdR was determined in a liquid scintillation counter. From the CPM obtained from each experimental well an IC-50 for each inventive compound tested was determined. Therefore, a lower reported IC-50 value is indicative of greater inhibition of IL-2-induced proliferation of thymocytes. Table II illustrates IC-50 values (in μM) for inventive compounds inhibiting proliferation at very low concentrations of compound.

[2] = test system: normal human bone marrow stromal cells (MSC); assay: human bone marrow stromal cell (MSC) proliferation in response to PDGF BB and IL-1α; format: cell-based; conditions: Table III, PDGF BB 50 ng/ml and IL-1α 10 ng/ml
Protocol: This example illustrates the effects of inventive compounds nos. 1114, 1413, 1560, 1565, 1594, 2518, 2548R, 2548S and 3503 as effective inhibitors of normal human bone marrow stromal cells (MSC) proliferation in response to Platelet Derived Growth Factor BB (PDGF B) and IL-1α (50 and 10 ng/ml, respectively).
MSC were obtained and malintained in exponential growth, released from a growth plate with trypsin and plated into 96 well tissue culture plates in the presence of Fibroblast Growth Factor (FGFβ) for 48 hours. Growth media were removed and the cells were washed once with serum free media. The cells were then incubated 20-24 hours in serum free media.
After incubation, inventive compounds were added to the cells at the appropriate concentration and then the cells again incubated for 1 hour. PDGF B and IL-1α were added to the cells along with 3H-thymidine and the cells again incubated for an additional 24 hours.
After 24 hours of incubation, the cells were then harvested to assess incorporation of ^3 H-thymidine into DNA (proliferation). From each harvested cell culture, an IC-50 for each inventive compound tested was determined. Therefore, a lower reported IC-50 value is indicatilve of greater activity of the invention compounds in inhibiting MSC proliferation. Table III illustrates IC-50 values (in μM) for invention compounds inhibiting MSC proliferation at very low concentrations of compound.

thymocytes [3] = assay: murine thymocyte proliferation assay co-stimulated by ConA and IL-2 (FIGS. 7A-7E); format: cell-based, Balb/C mice; conditions: Mus musculus
Excerpt: This example illustrates dose response curves used to generate 50% inhibition concentrations (IC50) for inventive compounds nos. 1410, 1439, 1541, 1553, 1553S, 1560, 1565, 2548R, 2548S and 2562 in a murine thymocyte proliferation assay, co-stimulated by Concanavalin A (ConA) and interleukin-2 alpha (IL-2). ConA, used to activate the T-cell receptor (TCR), along with IL-2 co-stimulation, induces T-cell proliferation and differentiation. Thymuses, obtained from normal, female Balb/C mice, were dissociated and plated into 96-well plates at a density of 2×10^5 cells/well. ConA (0.25 mg/ml) and IL-2 (15 U/ml) were added to the wells. The cells were incubated for 4 days at 37° C. On day 4, the cells were pulsed with tritiated thymidine and incubated for an additional 4 hours. The amount of tritiated thymidine incorporated by the harvested cells was determined in a liquid scintillation counter. Doses of inventive compounds (shown in FIGS. 7A-7E) were added two hours prior to ConA and IL-2 activation. Background counts were less than 200 cpm. Results obtained, illustrate the ability of the inventive compounds to inhibit thymocyte proliferation and activation. In FIG. 7A, inventive compounds nos. […] FIG. 7B presents additional data for compound no. 1410 and 1553S in this assay. […] FIG. 7C reports assay results for inventive compounds nos. 1439, 1541, 1560 and 1565. […] FIGS. 7D and 7E illustrate assay results for inventive compounds nos. 1541, 1553, 1560 and 1565 (FIG. 7D) and 2562, […] (FIG. 7E). As is true of other inventive compounds tested, all these compounds represented in FIGS. 7D and 7E inhibit thymocyte proliferation. […] 1541, 1553, 1560, 1565, 2562, 2548R and 2548S, respectively.

murine splenocytes = assay: murine splenocyte proliferation co-stimulated by anti-mu and IL-4 (FIG. 11); format: cell-based; conditions: Mus musculus, anti-mu / IL-4 12.5 ng/ml
Protocol: This example illustrates inhibitive effects of compounds nos. 1439, 1553S, 1560 and 1565 on murine splenocyte proliferation co-stimulated by anti-mu ([…]) and interleukin-4 (IL-4, 12.5 ng/ml). This in vitro assay, described above, is indicative of immune-suppressive/autoimmune treatment assay emphasizing humoral or B cell immune response. This assays are a predictive model for treatment or prevention of autoimmune diseases, such as diabetes, lupus, arthritis, and the like. The assay measures immunosuppressive activity of a drug at the B cell level. Spleens from adult mice contain immature B cells that express surface IgM. Cross-linking the surface IgM with an anti-mu antibody results in B cell proliferation. Additionally, this activation results in an increased expression of interleukin-4 receptors(IL-4R) on the surface of such cells. IL-4 acts as a growth factor for B cells and will increase the amount of proliferation induced by anti-mu.
A mixture of anti-mu and murine IL-4 is added to murine splenocytes to cause their proliferation. Mice spleens are obtained from adult mice and a single cell suspension is prepared in RPMI 1640 medium supplemented with 10% FCS. Cells (200,000) are plated into flat-bottomed wells and pre-incubated for 1-2 hours with various concentrations of inventive compound or PBS if it is a control. A mixture of anti-mu and murine is added to the wells at a final concentration of 5 μg/ml anti-mu and 12.5 ng/ml IL-4 and plates are incubated for three days. Proliferation is determined on the third day with a pulse of tritiated thymidine. The IC50 concentration of a particular drug is the concentration of drug that results in a 50% inhibition of the proliferation obtained from the positive control.

lymph node cells = assay: ovalbumin-induced proliferation in murine lymph cells (FIG. 13); format: cell-based, Balb/C mice; conditions: Mus musculus, OVA 200 μg/ml
Excerpt: This example illustrates effects of the inventive compounds on ovalbumin-induced proliferation in murine lymph cells. Lymphnode cells contain a mixture of lymphoid cells: T-cells, B-cells and macrophages. Although proliferating cells in this assay are T-cells, the response obtained depends on type of antigen-presenting cell (e.g., macrophages) as well as elaboration of various immunoregulatory cytokines. Thus, this assay serves as a good model for T-cell mediated responses and as a valuable screening tool in identifying compounds useful in immunosuppressive therapeutic applications.
Murine T-cells proliferate in vitro in response to a soluble protein antigen if first primed with a corresponding antigen in vivo. This in vivo priming usually involves emulsifying the antigen in complete Freunds adjuvant and injecting this preparation into an appropriate site on a mouse. In this assay the antigen employed was chicken ovalbumin(OVA). Following emulsification in Freund's complete adjuvant, 50 μg of OVA were injected into both hind footpads of adult Balb/C mice. Fourteen days later the draining lymph nodes(popliteal) were removed and a single cell suspension was prepared in RPMI-1640 (10%FCS) medium. Two hundred thousand lymph node cells are then plated into wells of flat-bottom 96-well plates. Inventive compouds nos. 1410, 1553 (racemic), 1553(S), 1560 and 1565 were added to appropriate wells at various concentrations. OVA, at a final concentration of 200 μg/ml, was added to appropriate wells. Positive and negative controls were established on each plate, all assay variables being set up in quadruplicate.
The plates were incubated in a humidified, 5% CO2 incubator for 5 days. On the fifth day, 1 μCi of tritiated thymidine was added to each well and the plates were incubated for an additional 4 hours. The plates were harvested and the incorporation of 3H-TdR was determined in a liquid scintillation counter. The CPM data was then used to calculate experimental IC50 values for the compounds tested. Again, IC50 is defined as that concentration of compound resulting in 50% inhibition of 3H-TdR incorporation of the positive control.

[4] = test system: hair follicles / skin of nu/nu (nude) mice; assay: hair growth stimulation in nude mice, topical, skin biopsies; format: in vivo
Excerpt: This example illustrates the effects of inventive compound no. 1541 as hair growth stimulant in nude mice. In a procedure similar to that used in a commercial model for predicting human hair-growing ability of minoxidil, nu/nu (nude) mice were painted twice daily for 16 days on the right flank with compound no. 1541 using sterile applicators. Researches handled the mice under a laminar flow hood with applicator, wearing face mask and sterile gloves.
After 16 days, one mouse was sacrificed by cervical dislocation and skin biopsies taken from the treated areas of the shoulder/flank and the non-treated area of the dorsal pelvis (rump). Specimens were placed in 10% buffered formalin solution.
Six weeks following treatment, a second mouse was euthanatized and biopsied the same as previous mouse after 16 days.

Cn1cnc2c1c(=O)n(CCCCCCCCCC1CO1)c(=O)n2C (stereo not shown) [Compound 1594]
IC50 (thymocytes [1]): 8.5 µM | IC50 [2]: 14 µM

C[C@@H](CCCn1c(=O)c2c(ncn2C)n(C)c1=O)CCC1OC1(C)C (stereo partly drawn) [Compound 2548R, 1-(4-(R)-Methyl-7,8-oxido-8-methylnonyl)-3,7-dimethylxanthine]
IC50 (thymocytes [1]): 7.5 µM | IC50 (thymocytes [3]; FIGS. 7D and 7E): 16 µM | IC50 [2]: 8.7 µM

O=C1Cc2ccccc2C(=O)N1CCCCCCCCCC1CO1 (stereo not shown) [Compound 1114, N-(10,11-Oxidoundecyl) homophthalimide]
IC50 (thymocytes [1]): 10 µM | IC50 [2]: 5.1 µM

Cn1cnc2c1c(=O)n(CCCCCC[C@H]1CO1)c(=O)n2C [Compound 1553S, 1-(7(5)-7,8-Oxidooctyl)-3,7-dimethylxanthine]
IC50 (thymocytes [3]; FIG. 7B): 46 µM | IC50 (murine splenocytes): 50 µM | IC50 (lymph node cells): 43 µM

Cn1cnc2c1c(=O)n(CCCCC1CO1)c(=O)n2C (stereo not shown) [Compound 1541, 1-(5,6-Oxidohexyl)-3,7-dimethylxanthine]
skin histology findings (inflammatory cells) ([4]; after 16 days, also a few in untreated areas): mild accumulations of mixed inflammatory cells in the dermis | hair/follicle findings six weeks following treatment ([4]; six weeks following treatment): confirmed hair loss; also recorded: slightly straighter superficial portions of follicles with less curling of hair shafts; also recorded: the subcutis contained active anagen bulbs located deeply in the subcutis | skin histology findings (acanthosis) ([4]; six weeks following treatment): slightly more acanthosis (epidermal hyperplasta) in treated areas | hair follicles and hair shafts in treated areas ([4]; topical, twice daily, 16 days, biopsy at 16 days): follicles in the treated areas had hair shafts which sometimes exit to the surface; also recorded: more normal appearing hair follicles than the untreated sections; also recorded: numerous hair shafts were seen exiting follicles in the treated sections | IC50 (thymocytes [3]; FIG. 7C): 70 µM | IC50 (thymocytes [3]; FIGS. 7D and 7E): 57 µM

Cn1c(=O)n(CCCCC2CO2)c(=O)c2[nH]cnc21 (stereo not shown) [Compound 1439, 1-(5,6-Oxidohexyl)-3-methylxanthine]
IC50 (thymocytes [1]): 8 µM | IC50 (thymocytes [3]; FIG. 7C): < 25 µM | IC50 (murine splenocytes): 31 µM

C[C@H](CCCn1c(=O)c2c(ncn2C)n(C)c1=O)CCC1OC1(C)C (stereo partly drawn) [Compound 2548S, 1-(4-(S)-Methyl-7,8-oxide-8-methylnonyl)-3,7-dimethylxanthine]
IC50 (thymocytes [1]): 4.6 µM | IC50 (thymocytes [3]; FIGS. 7D and 7E): 21 µM | IC50 [2]: 5.9 µM

Cn1cnc2c1c(=O)n(CCCCCCCCCCCC1CO1)c(=O)n2C (stereo not shown) [Compound 2562, 1-(12,13-Oxidotridecyl)-3,7-dimethylxanthine]
IC50 (thymocytes [1]): 3.1 µM | IC50 (thymocytes [3]; FIGS. 7D and 7E): 20 µM

Cn1cnc2c1c(=O)n(CCCCCCCCCCCCC1CO1)c(=O)n2C (stereo not shown) [Compound 3503, 1-(13,14-Oxidotetradecyl)-3,7-dimethylxanthine]
IC50 (thymocytes [1]): 10 µM | IC50 [2]: 14 µM

Cn1cnc2c1c(=O)n(CCCCCCC1CO1)c(=O)n2C (racemic) [Compound 1553, 1-(7,8-Oxidooctyl)-3,7-dimethylxanthine]
IC50 (thymocytes [3]; FIGS. 7D and 7E): 29 µM | IC50 (lymph node cells): 45 µM

O=C1c2ccccc2C(=O)N1CCCCCCCC1CO1 (stereo not shown) [Compound 1105, N-(8,9-Oxidononyl) phthalimide]
IC50 (thymocytes [1]): 8.5 µM

Cn1c(=O)n(CCCCC2CO2)c(=O)c2c1ncn2COC(=O)C(C)(C)C (stereo not shown) [Compound 1410]
IC50 (thymocytes [3]; FIG. 7A): 68 µM | IC50 (thymocytes [3]; FIG. 7B): 62 µM | IC50 (lymph node cells): 55 µM

C=CCCCCn1c(=O)c2c(ncn2C)n(C)c1=O [Compound 1539, 1-(5-Hexenyl)-3,7-dimethylxanthine]
IC50 [2]: 18 µM

Cn1cnc2c1c(=O)n(CCCCCCCCC1CO1)c(=O)n2C (stereo not shown) [Compound 1565, 1-(9,10-Oxidodecyl)-3,7-dimethylxanthine]
IC50 (thymocytes [3]; FIG. 7C): 32 µM | IC50 (thymocytes [3]; FIGS. 7D and 7E): 30 µM | IC50 (murine splenocytes): 40 µM | IC50 (lymph node cells): 38 µM | IC50 [2]: 17 µM

Cn1c(=O)n(CCCCCCCCCC2CO2)c(=O)c2[nH]cnc21 (stereo not shown) [Compound 1413, 1-(11,10-Oxidoundecyl)-3-methylxanthine]
IC50 (thymocytes [1]): 7.7 µM | IC50 [2]: 3.7 µM
